From publication PMC7196836, “Molecular analysis of the ribosome recycling factor ABCE1 bound to the 30S post‐splitting complex” (The EMBO Journal, 2020)

Target: T1, ABCE1 (Saccharolobus solfataricus, UniProt Q980K5, L353Y)
T1 construct: gene SSO0287; recombinant in E. coli (pSA4 plasmid), C-terminal His6 tag; FeS cluster domain kept
Experiment: Malachite Green ATPase assay (phosphate release)
Format: biochemical
Conditions: 2 mM ATP, 2.5 mM MgCl2, 150 mM NaCl, Hepes pH 7.5, 80 °C; no ribosomes

Nc1ncnc2c1ncn2[C@@H]1O[C@H](COP(=O)(O)OP(=O)(O)OP(=O)(O)O)[C@@H](O)[C@H]1O [ATP]
ATP turnover per ABCE1: ATPase activity of ABCE1^L353Y (Appendix Fig S3) were comparable to wild type
